Legend:
[1] = target: T1, Escherichia coli RNA polymerase (Escherichia coli, UniProt P0A8V2); test: Inhibition of initiation of transcription (de-protection of BseRI site of plasmid pDNAB-tac, ethidium bromide fluorescence); format: biochemical
T1 construct: purchased Pharmacia, Uppsala, Sweden
Protocol: In order to measure the initiation of transcription RNA polymerase was added to 0.5 μg of pDNAB-tac plasmid following the same procedure described above for the measurement of DNA-binding activity. The 4 ribonucleotide triphosphates (ATP, CTP, GTP and UTP) were then added to the reaction mixture followed by BseRI and the amount of CCC DNA left was measured after 20 minutes using ethidium bromide fluorescence as in Example 1. In the presence of the 4 ribonucleotide triphosphates the RNA polymerase starts polymerizing an RNA molecule and it moves away from the promoter sequence, thereby de-protecting the BseRI cleavage site. Cleavage at this site can take place then.
In order to measure the inhibition of the initiation of transcription, the effect of various concentrations of rifampicin on the de-protection of the BseRI site was measured. […] After 5 minutes of incubation, rifampicin and BseRI were added and the amount of uncleaved plasmid was measured after 20 minutes of incubation at 37° C. The 4 ribonucleotide triphosphates were then added and the amount of uncleaved plasmid was measured again after 20 more minutes of incubation at 37° C. […]
The relative effects of rifampicin on transcription was quantitated using the formula [formula] […]

[2] = target: T1, Escherichia coli RNA polymerase; test: Binding of RNA polymerase to the promoter sequence (protection of pDNAB-tac from BseRI cleavage, before addition of ribonucleotide triphosphates); settings: various concentrations of rifampicin, FIG. 14
Protocol: The following experiment was conducted to measure the DNA-binding activity of RNA polymerase to its cognate nucleotide recognition sequence. The incubation buffer contained 50 mM tris HCI (pH 8), 5 mM MgCl2, 100 mM potassium glutamate, and 3, μg of pDNABtac DNA in 60 μL final volume. One to 9 units of RNA polymerase (Boehringer-Mannheim, Mannheim, Germany) were added and, after preincubation at 37° C. for 5 minutes, the reaction was cooled to 31° C.
In order to measure the inhibition of the initiation of transcription, the effect of various concentrations of rifampicin on the de-protection of the BseRI site was measured. Rifampicin is an antibiotic used in the therapy of bacterial infections (e.g. tuberculosis) and it specifically targets bacterial RNA polymerase, by inhibiting its transcription activity. […] After 5 minutes of incubation, rifampicin and BseRI were added and the amount of uncleaved plasmid was measured after 20 minutes of incubation at 37° C. The 4 ribonucleotide triphosphates were then added and the amount of uncleaved plasmid was measured again after 20 more minutes of incubation at 37° C.
The white bars represent the fluorescence units (i.e. the amount of uncleaved plasmid) before the addition of the 4 ribonucleoside triphosphates, while the hatched bars represent the fluorescence units left after addition of the 4 ribonucleotide triphosphates.

**Q.** CO[C@H]1/C=C/O[C@@]2(C)Oc3c(C)c(O)c4c(O)c(c(/C=N/N5CCN(C)CC5)c(O)c4c3C2=O)NC(=O)/C(C)=C\C=C\[C@H](C)[C@H](O)[C@@H](C)[C@@H](O)[C@@H](C)[C@H](OC(C)=O)[C@@H]1C [rifampicin] was tested. Which Ki ([1]; Michaelis-Menten fit of % inhibition, rifampicin 0.2 μM to 3.2 μM, plasmid pDNAB-tac, 37° C., read-out: apparent Ki of rifampicin (inhibition of initiation of transcription activity)) did it give?
**A.** 2800 nM

**Q.** And the “inhibition of the transcription initiation activity” value ([1]; various concentrations of rifampicin, with the 4 ribonucleotide triphosphates, FIG. 14)?
**A.** dose-dependent inhibition

**Q.** What about the “inhibition of the binding of RNA polymerase to the promoter sequence” value [2] of the same compound?
**A.** not of the binding of RNA polymerase to the promoter sequence
